Row | SMILES | melting point [°C]
1 | Nc1ccccc1C(=O)Nc1cc2c(cc1F)OCC(=O)N2 | 251 to 252
2 | CCOC(=O)c1ccc(N(C(C)=O)C(=O)c2ccc(C(=O)C(C)(C)C)cc2)cc1 | 91 to 94
3 | CCOCCn1c(CN2CCN(CCNc3nc4cnccc4[nH]3)CC2)nc2cccnc21 | 124
4 | O=C(CC(O)(Cn1cncn1)c1ccc(Cl)cc1Cl)N1CC1 (stereo unspecified) | 151 to 153
5 | O=C(O)CC1c2ccccc2CCc2ccccc21 | 163 to 165
6 | Cc1ccc(O[C@H]2CCN(C)C[C@H]2O)cc1C (relative stereo) | 127 to 129
7 | O=C(O)c1cc([N+](=O)[O-])cc2c1CCCC2 | 209 to 212
8 | C=CCN1CCCC1CNC(=O)c1cc(S(=O)(=O)NC)cc2c1OCCO2 (stereo unspecified) | 101 to 102
9 | Clc1ccc(I)c(CBr)c1 | 75 to 79
10 | CC(c1ccc(-c2ccccc2)c(F)c1)c1nc(CC(=O)O)no1 (stereo unspecified) | 100 to 102
11 | N#Cc1ccc(N(Cc2ccc(O)cc2)n2ccnc2)cc1 | 180
12 | COc1cc(Cc2ccc3nc(N)nc(N)c3c2)cc(OC)c1 | 230 to 232
13 | COc1cc(C(=O)c2ccc(C)cc2)cc(C(=O)O)c1OC | 135 to 136
14 | Cn1ncc2c1-c1c(Oc3ccc4c(c3)OCO4)sc(C(=O)NC(C)(C)C)c1CC2 | 171 to 179
15 | C=C(C)[C@@H]1CC(=O)[C@H](C)[C@H]1c1nc2c([nH]1)c(=O)n(CCC)c(=O)n2CCC | 136 to 137
16 | CNc1cc(Br)cc(S(=O)(=O)c2ccccc2)c1 | 143 to 145
17 | COCCNS(=O)(=O)c1ccc(C(CC2CCCC2)C(=O)Nc2nc3ccc(OC)nc3s2)cc1 (stereo unspecified) | 209 to 211
18 | CN(Cc1ccc(NC(=O)C2=Cc3cc(-c4ccncc4)ccc3OCC2)cc1)C1CCOCC1 | 186 to 187
19 | C=CCNc1nc(NCC(C)(C)C)nc2ccc([N+](=O)[O-])cc12 | 167 to 168
20 | O=C1CC=C(c2ccccc2Cl)c2cc(Cl)ccc2N1 | 171
21 | CCCOc1ccccc1C(=O)CCC(=O)O | 77 to 79
22 | CC(=O)c1ccc(OC(=O)c2c3ccccc3nc3ccccc23)cc1 | 214 to 215
23 | O=C(O)C(Sc1nc2ccc(Cl)nc2s1)c1ccccc1 (stereo unspecified) | 175 to 177
24 | Cc1cccc(NC(=O)CN2CCN(c3ccccc3)CC2)c1 | 120 to 121
25 | COc1cc2ncnc(Nc3ccc(OCc4ccccn4)c(C)c3)c2cc1O | 234 to 235
26 | N#CC1c2ccccc2Sc2ccccc21 | 103 to 105

Row | SMILES | melting point [°C]
27 | CNC(=O)C(=NOCF)c1ccccc1OC1CCCCO1 (stereo unspecified) | 81
28 | CCOC(=O)c1c(C(C)C)nc(-c2ccccc2)c(C(C)C)c1-c1ccc(F)cc1 | 138 to 140
29 | CNC(=O)Nc1ccc2[nH]cc(C3CCN(C)CC3)c2n1 | 229 to 230
30 | Cc1nc2cnccc2n1-c1ccc(C=Cc2cccc(OCc3nc4cc(F)ccc4s3)c2)cc1 | 178 to 181
31 | c1cc(NC2=NCCN2)ccc1Cc1ccc(N2CCOCC2)cc1 | 177 to 179
32 | CCCCCCCCCCOc1cc(OCCCOc2ccc(OCc3ccccc3)cc2)cc(C(=O)O)c1 | 107 to 109
33 | CCOC(=O)COc1ccc(NS(C)(=O)=O)cc1OC | 118 to 119
34 | CCCNc1nc(=O)n(CC2CC2)c2nc(C(C)C)[nH]c12 | 208 to 210
35 | CC(C)C(=O)N(C(=O)N(C)C)c1snc(C(C)C)c1C#N | 127 to 129
36 | Cc1nc2cc(Sc3cccc4cnccc34)c([N+](=O)[O-])cc2c(=O)[nH]1 | > 270
37 | CCOc1ccc(-c2nc(-c3cccc(C(O)CO)n3)cs2)cc1OCC (stereo unspecified) | 112
38 | CC(O)C#CC1CCC2C3CCC4CC(O)CCC4(C)C3CCC12C (stereo unspecified) | 169 to 171
39 | COc1ccc(-c2c(C#N)ccnc2SC)cc1 | 80 to 81
40 | COc1ccc([C@H](C)NC(=O)COc2cc(C(F)(F)F)c3c(-c4ccccc4)nn(C)c3n2)cc1 | 172 to 174
41 | CCOC(=O)C(Cc1ccc(-c2ccco2)cc1)NC(=O)C1(NC(=O)OC(C)(C)C)CCCC1 (stereo unspecified) | 107 to 112
42 | CCOC(=O)c1c(Cl)nn(C)c1S(=O)(=O)NC(=O)Nc1nc(OC)cc(OC)n1 | 169 to 170
43 | CCCCCC(c1nccn1CC(=O)O)n1cnc2cc(-c3ccccc3-c3nn[nH]n3)ccc21 (stereo unspecified) | 150 to 160
44 | Clc1cccc(Cl)c1NCC1CC1 | 149 to 158
45 | Cc1cc(OCC(=O)NCc2ccccc2)ccc1N1CC(=O)NS1(=O)=O | 70 to 90
46 | O=c1[nH]c(-c2ccccc2)c(-c2ccccc2)o1 | 158 to 159
47 | CCCCC(=O)NC(C(=O)OCC)=C(N)SCCOC(C)=O | 84
48 | CC(OC(=O)NC1(C(=O)O)CC1)OC(=O)C(C)C (stereo unspecified) | 127 to 130
49 | O=Cc1cc(Cc2cccnc2)ccc1O | 130 to 132
50 | Cc1ccc2c(NCc3ccc(NC(=O)C4CCN(Cc5ccc(F)c(F)c5)CC4)cc3)nc(N(C)C)nc2c1 | 97 to 99
51 | CCN1c2ncc(CCc3cccc(C)c3)cc2C(=O)N(C)c2cccnc21 | 103 to 104
52 | COc1cc(OC)nc(Oc2cccc(Oc3nc(OC)cc(OC)n3)c2C=O)n1 | 129

Row | SMILES | melting point [°C]
53 | CCOCn1c(Cl)c(Cl)c(C#N)c1-c1ccc(Cl)c(Cl)c1 | 128 to 130
54 | OCc1onc(-c2ccc(Cl)o2)c1-c1ccccc1 | 102 to 103
55 | CCNC(=S)NC1CCCCc2sccc21 (stereo unspecified) | 117 to 120
56 | O=S1(=O)N=CN(C2CCC2)c2cc(Cl)c(Cl)cc21 | 238 to 240
57 | COc1ccc(CN(C)CCCCCc2ccc(NC(=O)c3cccc4c(=O)c5ccccc5[nH]c34)cc2)cc1OC | 110
58 | CC(C)C#Cc1ncn2c1CN(C)C(=O)c1c(Cl)cccc1-2 | 128 to 130
59 | CC(C)(C)c1ccc(CCNc2ncnc3ccncc23)cc1 | 157 to 158
60 | COc1ccc(C(OC2CCN(CC(=O)O)CC2)c2ccccc2)cc1 (stereo unspecified) | 84 to 85
61 | CS(=O)(=O)c1cc([N+](=O)[O-])c(C(=O)O)cc1N(CCBr)CCBr | 174 to 176
62 | COC(=O)c1cccc(C)c1OC(=S)N(C)C | 94 to 96
63 | COc1ccc2c(c1)oc(=O)c1c3ccc(OC)cc3sc21 | 220 to 221
64 | CCCCCCCCc1ccc(CCC(COC(C)=O)(COC(C)=O)NC(C)=O)cc1 | 112
65 | FC(F)(F)c1ccc(C#Cc2ccc(C#Cc3cc4ccccc4s3)s2)cc1 | 149 to 150
66 | O=C(NCCN1CCCC1)c1cccc(-c2cccc(OCCc3ccc(Cl)cc3Cl)n2)c1 | 115 to 116
67 | N#Cc1c(C(F)(F)F)cc(N(Cc2ccccn2)Cc2ccccn2)cc1C(F)(F)F | 122
68 | O=C1NOCCN1c1ccc(Cl)c(Cl)c1 | 152
69 | O=C(Nc1ccccc1)C1Cc2cc(Br)cc3[nH]c(=O)c(=O)n1c23 (stereo unspecified) | > 300
70 | O=C(O)C[C@H]1CC[C@H](Sc2nc(C3OCCO3)n(Cc3cc4c(cc3Cl)OCO4)c2C(=O)O)CC1 | 145
71 | O=Cc1cncn1-c1ccc(F)cc1 | 131 to 133
72 | COC(=O)c1cc(=O)c2cc(OC)cc([N+](=O)[O-])c2o1 | 192 to 193
73 | CN(C)c1ccc2c(n1)C(c1ccccc1Cl)=NCc1nncn1-2 | 240 to 242
74 | N#Cc1cc(Br)cc2ccc(O)c(Cl)c12 | 148 to 150
75 | ClCc1ccc(Oc2ccc3ccc(Oc4ccc(CCl)cc4)cc3c2)cc1 | 95 to 97
76 | Oc1cccc(N2CCCC2)n1 | 154 to 158
77 | O=C(O)C(=O)c1ccc(OCCOc2ccc(-c3ccccc3)cc2)cc1 | 179 to 180
78 | COc1ccc(C(=O)C(=O)c2ccc(OC(F)F)cc2)cc1C#N | 150 to 155

Row | SMILES | melting point [°C]
79 | O=C(CCCl)NC12CCCC(C1)C1CCC2C1 (stereo unspecified) | 192 to 195
80 | Cc1nc(O)cc2sccc12 | 225 to 227
81 | COc1cccc(C(=O)NCC(=O)N2c3ccccc3N(Cc3ccccc3)C(=O)[C@H]3CCC[C@H]32)c1 (relative stereo) | 160 to 161
82 | O=S1(=O)NCN(C2CC2)c2ccc(O)cc21 | 187 to 189
83 | O=C(c1cccc(C(F)(F)F)c1)c1ncccc1C(O)=NNc1ccc(C(F)(F)F)cc1 | 127 to 129
84 | c1ccc(-c2ccc(OC3CN(C(c4ccccc4)c4ccccc4)C3)cc2)cc1 | 141 to 142
85 | CNC(C(C)C)C(c1ccccc1)c1ccccc1 (stereo unspecified) | 46 to 48
86 | O=C(O)[C@H](Cc1ccccc1)Nc1c(NCc2ccccc2)c(=O)c1=O | 215 to 216
87 | CC(C)NCc1nc(-c2ncn3c2CN(C)C(=O)c2ccccc2-3)no1 | 142 to 144
88 | N#CCCNC(=S)C1=CC(CF)(CF)Oc2ccc(C(F)(F)C(F)(F)C(F)(F)F)cc21 | 94 to 95
89 | CC1(C)CCC(C)(C)c2cc(-c3cnn(-c4ccc(C(=O)O)cc4)c3)ccc21 | 229 to 232
90 | CCc1ccc2c(c1)C(=O)c1ccc(-c3nnn[nH]3)cc1S2(=O)=O | 239
91 | Cn1c(=O)c(-c2ccc(Cl)cc2Cl)cc2c3cc(-c4cc(N)n[nH]4)ccc3n(C)c21 | 284 to 286
92 | CCCCc1nc2c(C)cccc2n1Cc1ccc([N+](=O)[O-])cc1 | 115 to 116
93 | CC(C)(C)C(=O)c1c[nH]c2ncc(-c3cccc(N)c3)nc12 | 239 to 241
94 | CCCCCCCCC(CCCCCCCC)N1C(=O)c2ccc3c4cccc5cccc(c6ccc(c2c36)C1=O)c54 | 143 to 144
95 | CCCCS(=O)(=O)Oc1ccc(CCOc2ccc(/C=C(\OCC)C(=O)O)cc2OC)cc1 | 94
96 | CCNC(=O)c1ccc(C=O)cc1 | 100
97 | OC(Cc1ccc(C(F)(F)F)cc1)(Cn1ccnc1)Cn1cncn1 (stereo unspecified) | 159 to 161
98 | CCCc1nn(-c2ccc(C(F)(F)F)cn2)cc1CCCOc1cccc(CC(=O)O)c1 | 106 to 107
99 | CC(/C=C/c1sccc1-c1cc2c(cc1C)C(C)(C)CCC2(C)C)=C\C(=O)O | 208 to 209
100 | CN(C)c1ccc(C(=O)C(C)(C)N(C)C)cc1 | 89 to 91
101 | OC(CCCN1CCN(c2ncc(F)cn2)CC1)c1ccc(F)c2ccccc12 (stereo unspecified) | 129 to 131
